Like-named read-outs stand apart in the source and are kept apart here.

Assay [1] has as its system hepatitis C virus. Kind of assay: Antiviral activity in HCV replicon cells (Renilla luciferase). It is filed as cell-based. Particulars: read-out: Test Example 3: antiviral activity (EC50). As to the method:
The antiviral activity of the stilbene derivatives on hepatitis C virus was measured. The replicon cells that stably replicate the hepatitis C virus genome were attached to a culture plate and cultured in a CO2 incubator at 37° C. for 24 hr. The replicon cells cultured for one day were washed with a PBS solution, treated with the compounds of the present invention, and then cultured for 72 hr. The stilbene derivative-treated replicon cells were washed with a cold PBS solution and added with 20 μL of a cell lysis solution so that the cells were lysed in ice for 20 min. 100 μL of a Renilla luciferase substrate was added thereto, after which the luminescence thereof was measured and thus the amount of the hepatitis C virus genome was estimated. The amount of the hepatitis C virus genome in the stilbene derivative-treated replicon cells according to the present invention relative to the amount of the hepatitis C virus genome in dimethylsulfoxide (DMSO)-treated replicon cells is shown.
Compounds 1 to 155 of Tables 1 to 10 may be grouped as follows based on the antiviral activity (EC50) values: […]
Background: A replicon is a self-replicating genome or part of one, used to study replication in cells.

In assay [2] the test system is mitochondria obtained from hepatocytes. Briefly: Inhibitory activity on calcium-induced mitochondrial swelling (absorbance 520 nm). Particulars: read-out: Test Example 4: inhibiting mitochondrial swelling (IC50). From the text:
Cyclophilin is a key protein for forming permeability transition pores (PTP) in mitochondria. When permeability transition pores are formed, mitochondria swell, whereby the outer membrane thereof ruptures and thus cell death progresses. Such mitochondrial dysfunction causes many diseases including neurodegenerative diseases, cancer, and the like. Cyclosporine, a known cyclophilin inhibitor, is capable of preventing the formation of permeability transition pores to thus suppress mitochondrial swelling.
The mitochondrial swelling test was performed as follows. Specifically, the hepatocytes were disrupted using a Dounce tissue grinder. The disrupted cells were centrifuged at 700×g for 10 min and the supernatant was transferred into a new tube. The supernatant was centrifuged at 12,000×g for 15 min, thereby obtaining mitochondria.
When the extracted mitochondria were added with calcium, they swelled, which may be observed by measuring the absorbance at 520 nm. The stilbene derivatives are effective at inhibiting mitochondrial swelling due to calcium.
The activity of Compounds 1 to 155 of Tables 1 to 10 on inhibiting mitochondrial swelling may be determined based on IC50 values, and may be grouped as follows: […]

The target of assay [3] is cyclophilin. Kind of assay: Cis-trans isomerase inhibitory activity (chymotrypsin-coupled Suc-AAPF-pNA cleavage, absorbance 390 nm). The assay is classed as biochemical. Particulars: cyclophilin, chymotrypsin, Suc-AAPF-pNA; read-out: Test Example 1: cis-trans isomerase inhibitory activity (IC50). The text has this:
Chymotrypsin cleaves a trans-type alanine-proline peptide bond. When Suc-AAPF-pNA (a peptide substrate) and chymotrypsin are mixed, the trans-type peptide substrate is cleaved and the cis-type peptide substrate remains. The remaining cis-type peptide substrate is converted into a trans form by a cis-trans isomerase and is then cleaved again by chymotrypsin. When the cis-trans isomerase is present, chymotrypsin is able to cleave a larger amount of trans-type peptide substrate within a predetermined period of time, from which the activity of the cis-trans isomerase may be determined. The amount of the cleaved trans-type peptide substrate is measured using absorbance at 390 nm. Cyclophilin has cis-trans isomerase activity, and accelerates the cleavage of trans-type peptide substrate by chymotrypsin. When the stilbene derivatives of the present invention were treated together with cyclophilin, the cleavage of the peptide substrate by chymotrypsin was not observed to accelerate. Thereby, the stilbene derivatives of the invention can be concluded to inhibit the activity of cyclophilin.

[4] abbreviates: Hepatitis C virus, HCV replicon cells, 72 hr, Renilla luciferase, relative to DMSO.
[5] abbreviates: Hepatocyte, calcium-induced swelling of extracted mitochondria.

The term EC50 denotes the concentration giving half of the maximal effect. A word on the IC50: it is the concentration at which inhibition is half-maximal. On to `CCc1ccccc1C=C(C#N)c1ccc([N+](=O)[O-])cc1` [Compound 22], for which the half-maximal effective concentration (EC50) in assay [1] (setting [4]) lay within 5 to 50 µM. The half-inhibitory concentration (IC50) in assay [2] (setting [5]) lay within 50 to 500 µM; in assay [3], 0.2 to 2 µM.
As for `CC(C)c1ccccc1C=C(C#N)c1ccc([N+](=O)[O-])cc1` [Compound 23], the half-maximal effective concentration (EC50) in assay [1] (setting [4]) lay within 5 to 50 µM. The half-maximal inhibitory concentration (IC50) in assay [2] (setting [5]) lay within 50 to 500 µM; in assay [3] it was 0.2 to 2 µM.
For `N#CC(=Cc1ccccc1N)c1ccc([N+](=O)[O-])cc1` [Compound 24], in that order: 5 to 50 µM, 50 to 500 µM and 0.2 to 2 µM.
In the same order, the values of `CN1CCN(c2ccccc2C=C(C#N)c2ccc([N+](=O)[O-])cc2)CC1` [Compound 25] are 5 to 50 µM, 50 to 500 µM and 0.2 to 2 µM.
In the same order, the values of `CCC(C)Oc1ccccc1C=C(C#N)c1ccc([N+](=O)[O-])cc1` (stereo not drawn) [Compound 26] are 5 to 50 µM, 50 to 500 µM and 0.2 to 2 µM.
On to `N#CC(=Cc1ccccc1OCC1CC1)c1ccc([N+](=O)[O-])cc1` [Compound 27], for which, in assay [1] (HCV replicon cells, 72 hr, Renilla luciferase, relative to DMSO), the EC50 was in the range of 0.5 to 5 µM. In addition, the half-maximal inhibitory concentration (IC50) in assay [2] (calcium-induced swelling of extracted mitochondria) lay in the range of 5 to 50 µM; in assay [3], 0.02 to 0.2 µM.
In the case of `CN(C)CCOc1ccccc1C=C(C#N)c1ccc([N+](=O)[O-])cc1` [Compound 28], the EC50 in assay [1] (setting [4]) lay within 5 to 50 µM. In addition, the IC50 in assay [2] (setting [5]) was 50 to 500 µM; in assay [3], 0.2 to 2 µM.
On to `N#CC(=Cc1ccccc1N1CCCCC1)c1ccc([N+](=O)[O-])cc1` [Compound 29], for which, in assay [1] (setting [4]), the concentration for a half-maximal effect (EC50) lay in the range of 5 to 50 µM. The IC50 lay in the range of 50 to 500 µM in assay [2] (setting [5]) and 0.2 to 2 µM in assay [3].
In the same order, the values of `N#CC(=Cc1ccccc1N1CCOCC1)c1ccc([N+](=O)[O-])cc1` [Compound 30] are 5 to 50 µM, 50 to 500 µM and 0.2 to 2 µM.
In the case of `N#CC(=Cc1ccccc1C1CCCCC1)c1ccc([N+](=O)[O-])cc1` [Compound 31], the EC50 in assay [1] (Hepatitis C virus, 72 h) lay within 0.5 to 5 µM. Further, the IC50 was in the range of 5 to 50 µM in assay [2] (Hepatocyte) and 0.02 to 0.2 µM in assay [3].
As for `CC(C)CCOc1cccc(C=C(C#N)c2ccc([N+](=O)[O-])cc2)c1` [Compound 32], the EC50 in assay [1] (setting [4]) is 5 to 50 µM. Also, the IC50 was 50 to 500 µM in assay [2] (setting [5]) and 0.2 to 2 µM in assay [3].
For `CN(C)CCCOc1cccc(C=C(C#N)c2ccc([N+](=O)[O-])cc2)c1` [Compound 33], in that order: 5 to 50 µM, 50 to 500 µM and 0.2 to 2 µM.
With `CC(C)Cc1ccccc1C=C(C#N)c1ccc([N+](=O)[O-])cc1` [Compound 34], the EC50 in assay [1] (setting [4]) was in the range of 5 to 50 µM. Besides, the 50% inhibitory concentration (IC50) was in the range of 50 to 500 µM in assay [2] (setting [5]) and 0.2 to 2 µM in assay [3].
`CC(C)(C)Cc1ccccc1C=C(C#N)c1ccc([N+](=O)[O-])cc1` [Compound 35]: the concentration for a half-maximal effect (EC50) in assay [1] (setting [4]) was in the range of 0.5 to 5 µM. In addition, the IC50 in assay [2] (setting [5]) was 5 to 50 µM; in assay [3], 0.02 to 0.2 µM.
For `CC(C)CCc1ccccc1C=C(C#N)c1ccc([N+](=O)[O-])cc1` [Compound 36], in that order: 0.5 to 5 µM, 5 to 50 µM and 0.02 to 0.2 µM.
With `N#CC(=Cc1ccccc1Cc1c(Cl)cccc1Cl)c1ccc([N+](=O)[O-])cc1` [Compound 37], the half-maximal effective concentration (EC50) in assay [1] (setting [4]) lay within 0.5 to 5 µM. In addition, the half-inhibitory concentration (IC50) in assay [2] (setting [5]) fell in the range of 5 to 50 µM; in assay [3], 0.02 to 0.2 µM.
In the same order, the values of `N#CC(=Cc1ccccc1CCc1ccccc1)c1ccc([N+](=O)[O-])cc1` [Compound 38] are 0.5 to 5 µM, 5 to 50 µM and 0.02 to 0.2 µM.
As for `N#CC(=Cc1ccccc1CCC1CCCCC1)c1ccc([N+](=O)[O-])cc1` [Compound 39], in assay [1] (setting [4]), the EC50 was < 0.5 µM. In addition, the results for the concentration for half-maximal inhibition (IC50) in assay [2] (setting [5]) and in assay [3] were < 5 µM and ≤ 0.02 µM, respectively.
Take `N#CC(=Cc1ccccc1CCCC1CCCCC1)c1ccc([N+](=O)[O-])cc1` [Compound 40]: the concentration for a half-maximal effect (EC50) in assay [1] (setting [4]) was < 0.5 µM. For the same compound, the IC50 in assay [2] (setting [5]) was < 5 µM; in assay [3], ≤ 0.02 µM.
For `N#CC(=Cc1ccccc1CC1CCCCC1)c1ccc([N+](=O)[O-])cc1` [Compound 41], in that order: < 0.5 µM, < 5 µM and ≤ 0.02 µM.
For `N#CC(=Cc1ccccc1CCCc1ccccc1)c1ccc([N+](=O)[O-])cc1` [Compound 42], in that order: 5 to 50 µM, 50 to 500 µM and 0.2 to 2 µM.
Take `CC(C)(C)CCc1ccccc1C=C(C#N)c1ccc([N+](=O)[O-])cc1` [Compound 43]: the EC50 in assay [1] (setting [4]) lay in the range of 0.5 to 5 µM. The IC50 in assay [2] (setting [5]) fell in the range of 5 to 50 µM; in assay [3] it was 0.02 to 0.2 µM.
In the same order, the values of `CC(C)(C)c1ccc(CCc2ccccc2C=C(C#N)c2ccc([N+](=O)[O-])cc2)cc1` [Compound 45] are 0.5 to 5 µM, 5 to 50 µM and 0.02 to 0.2 µM.
For `N#CC(=Cc1ccccc1CCc1ccccc1Cl)c1ccc([N+](=O)[O-])cc1` [Compound 46], in that order: 0.5 to 5 µM, 5 to 50 µM and 0.02 to 0.2 µM.
For `N#CC(=Cc1ccccc1CCc1cccc(Cl)c1)c1ccc([N+](=O)[O-])cc1` [Compound 47], in that order: 0.5 to 5 µM, 5 to 50 µM and 0.02 to 0.2 µM.
Regarding `N#CC(=Cc1ccccc1CCc1ccc(Cl)cc1)c1ccc([N+](=O)[O-])cc1` [Compound 48], the EC50 in assay [1] (Hepatitis C virus, 72 h) is 0.5 to 5 µM. The IC50 was 5 to 50 µM in assay [2] (setting [5]) and 0.02 to 0.2 µM in assay [3].
Turning to `COc1ccccc1CCc1ccccc1C=C(C#N)c1ccc([N+](=O)[O-])cc1` [Compound 49], the half-maximal effective concentration (EC50) in assay [1] (setting [4]) lay within 5 to 50 µM. The results for the IC50 in assay [2] (setting [5]) and in assay [3] were 50 to 500 µM and 0.2 to 2 µM, respectively.
For `Cc1ccc(CCc2ccccc2C=C(C#N)c2ccc([N+](=O)[O-])cc2)cc1` [Compound 52], in that order: 0.5 to 5 µM, 5 to 50 µM and 0.02 to 0.2 µM.
`N#CC(=Cc1ccccc1CCc1ccc(N)cc1)c1ccc([N+](=O)[O-])cc1` [Compound 53]: in assay [1] (setting [4]), the EC50 was in the range of 0.5 to 5 µM. The results for the half-maximal inhibitory concentration (IC50) in assay [2] (setting [5]) and in assay [3] were 5 to 50 µM and 0.02 to 0.2 µM, respectively.
For `CC(C)(C)Cc1ccc(C(C#N)=Cc2ccccc2C(=O)O)cc1` [Compound 54], in that order: < 0.5 µM, < 5 µM and ≤ 0.02 µM.
For the compound `CC(C)C(C)c1ccc(C(C#N)=Cc2ccccc2C(=O)O)cc1` (stereo not drawn) [Compound 55], the EC50 in assay [1] (setting [4]) lay in the range of 0.5 to 5 µM. The figures for the concentration for half-maximal inhibition (IC50) in assay [2] (setting [5]) and in assay [3] were 5 to 50 µM and 0.02 to 0.2 µM, respectively.
For `CC(c1ccc(C(C#N)=Cc2ccccc2C(=O)O)cc1)C(C)(C)C` (stereo not drawn) [Compound 56], in that order: 0.5 to 5 µM, 5 to 50 µM and 0.02 to 0.2 µM.
In the case of `CC(C)(C)CCc1ccc(C(C#N)=Cc2ccccc2C(=O)O)cc1` [Compound 57], the EC50 in assay [1] (setting [4]) is < 0.5 µM. The 50% inhibitory concentration (IC50) in assay [2] (setting [5]) is < 5 µM; in assay [3] it was ≤ 0.02 µM.
Consider `CC(C)C(C)Cc1ccc(C(C#N)=Cc2ccccc2C(=O)O)cc1` (stereo not drawn) [Compound 58], for which the concentration for a half-maximal effect (EC50) in assay [1] (Hepatitis C virus, 72 h) fell in the range of 0.5 to 5 µM. Also, the half-inhibitory concentration (IC50) in assay [2] (setting [5]) lay within 5 to 50 µM; in assay [3], 0.02 to 0.2 µM.
Take `N#CC(=Cc1ccccc1C(=O)O)c1ccc(CC2CCCCC2)cc1` [Compound 59]: the EC50 in assay [1] (setting [4]) was < 0.5 µM. Also, the half-maximal inhibitory concentration (IC50) in assay [2] (setting [5]) was < 5 µM; in assay [3], ≤ 0.02 µM.
As for `N#CC(=Cc1ccccc1C(=O)O)c1ccc(CCC2CCCCC2)cc1` [Compound 60], the EC50 in assay [1] (setting [4]) is < 0.5 µM. The values for the 50% inhibitory concentration (IC50) in assay [2] (setting [5]) and in assay [3] were < 5 µM and ≤ 0.02 µM, respectively.
In the same order, the values of `N#CC(=Cc1ccccc1C(=O)O)c1ccc(CC2CC2)cc1` [Compound 61] are < 0.5 µM, < 5 µM and ≤ 0.02 µM.
For `N#CC(=Cc1ccccc1C(=O)O)c1ccc(CCC2CC2)cc1` [Compound 62], in that order: < 0.5 µM, < 5 µM and ≤ 0.02 µM.
